According to ChEMBL document CHEMBL5380853, “Lead Optimization of Androgen Receptor-HSP27 Disrupting Agents in Glioblastoma” (J Med Chem, 2023):
Active and inactive are the calls of the source. No cut-off for these calls is given here.

Assays:
T98G [1] = experiment: Growth inhibition of AR-overexpressing human T98G cells measured after 48 hrs by MTT assay; format: functional, cell-based
U-87 MG = experiment: Growth inhibition of AR-overexpressing human U87 cells measured after 48 hrs by MTT assay; format: functional, cell-based, U-87MG ATCC
T98G [2] = experiment: Down regulation of androgen receptor activity in AR-overexpressing human T98G cells at 100 nM measured after 12 hrs by Western blotting analysis; format: functional, cell-based
[3] = Apparent half life in mouse plasma at 20 mg/kg, ip measured for 24 hrs by LC-MS/MS analysis; format: ADME, organism-based; details: plasma

In the case of COc1ccc(OC)c(COc2cc(NC(=O)c3cccc(Br)c3)ccc2NS(C)(=O)=O)c1, the IC50 (T98G [1]) is reported as 2.67 µM, the IC50 (U-87 MG) is reported as 0.53 µM and the Activity (T98G [2]) is reported as “Active”.

In the case of COc1ccc(OC)c(COc2cc(NC(=O)c3ccc(C#N)cc3)ccc2NS(C)(=O)=O)c1, the IC50 (T98G [1]) is reported as 0.79 µM and the IC50 (U-87 MG) is reported as 2.88 µM.

For COc1ccc(OC)c(COc2cc(NC(=O)c3ccc(Cl)c([N+](=O)[O-])c3)ccc2NS(C)(=O)=O)c1, the IC50 (T98G [1]) was 0.57 µM and the IC50 (U-87 MG) was greater than 10 µM.

For COc1ccc(OC)c(COc2cc(NC(=O)c3ccc(Cl)c(Cl)c3)ccc2NS(C)(=O)=O)c1, the IC50 (T98G [1]) was 2.38 µM and the IC50 (U-87 MG) was 0.476 µM.

CCCCCC(=O)Nc1ccc(NS(C)(=O)=O)c(OCc2cc(OC)ccc2OC)c1 showed an IC50 (T98G [1]) of 1.19 µM and an IC50 (U-87 MG) of 2.04 µM.

For COc1ccc(OC)c(COc2cc(NC(=O)c3ccc(OC(F)(F)F)cc3)ccc2NS(C)(=O)=O)c1, the IC50 (T98G [1]) was 0.899 µM, the IC50 (U-87 MG) was 2.49 µM and the Activity (T98G [2]) was “Active”.

With COc1ccc(OC)c(COc2cc(NC(=O)c3ccno3)ccc2NS(C)(=O)=O)c1 the IC50 (T98G [1]) was 3.97 µM, the IC50 (U-87 MG) was greater than 10 µM and the Activity (T98G [2]) was “Active”.

Compound COc1ccc(OC)c(COc2cc(NC(=O)c3ccc(Br)cc3)ccc2NS(C)(=O)=O)c1 has an IC50 (T98G [1]) of 0.148 µM and an IC50 (U-87 MG) of 0.155 µM.

For COc1ccc(OC)c(COc2cc(NC(=O)c3ccc(SC)cc3)ccc2NS(C)(=O)=O)c1, the IC50 (T98G [1]) was 0.029 µM, the IC50 (U-87 MG) was 0.092 µM and the Activity (T98G [2]) was “Active”.

COc1ccc(OC)c(COc2cc(NC(=O)c3ccc(NC(=O)COCC(=O)Nc4ccc(C(=O)Nc5ccc(NS(C)(=O)=O)c(OCc6cc(OC)ccc6OC)c5)cc4)cc3)ccc2NS(C)(=O)=O)c1 showed an IC50 (T98G [1]) greater than 10 µM and an IC50 (U-87 MG) greater than 10 µM.

COc1ccc(OC)c(COc2cc(NC(=O)c3ccc(-c4ccccc4)cc3)ccc2NS(C)(=O)=O)c1 showed an IC50 (T98G [1]) of 0.455 µM and an IC50 (U-87 MG) of 6.91 µM.

Compound CCc1ccc(C(=O)Nc2ccc(NS(C)(=O)=O)c(OCc3cc(OC)ccc3OC)c2)cc1 has an IC50 (T98G [1]) of 3.85 µM and an IC50 (U-87 MG) of 1.87 µM.

COc1ccc(OC)c(COc2cc(NC(=O)c3ccc(I)cc3)ccc2NS(C)(=O)=O)c1 showed an IC50 (T98G [1]) of 0.048 µM and an IC50 (U-87 MG) of 0.046 µM.

In the case of COc1ccc(OC)c(COc2cc(NC(=O)c3ccccc3C)ccc2NS(C)(=O)=O)c1, the IC50 (T98G [1]) is reported as 0.306 µM, the IC50 (U-87 MG) is reported as 1.19 µM and the Activity (T98G [2]) is reported as “Active”.

In the case of COc1ccc(OC)c(COc2cc(NC(=O)c3ccc(Cl)cc3)ccc2NS(C)(=O)=O)c1, the IC50 (T98G [1]) is reported as 0.077 µM and the IC50 (U-87 MG) is reported as 0.208 µM.

Work on COc1ccc(OC)c(COc2cc(NC(=O)c3ccc(OC)c(OC)c3)ccc2NS(C)(=O)=O)c1 yielded an IC50 (T98G [1]) of 0.09 µM and an IC50 (U-87 MG) of 0.22 µM.

COc1ccc(OC)c(COc2cc(NC(=O)c3ccc(N(C)C)cc3)ccc2NS(C)(=O)=O)c1 gave an IC50 (T98G [1]) of 1.91 µM and an IC50 (U-87 MG) greater than 10 µM.

COc1ccc(OC)c(COc2cc(NC(=O)c3cccc(C#N)c3)ccc2NS(C)(=O)=O)c1 showed an IC50 (T98G [1]) of 5.03 µM and an IC50 (U-87 MG) of 1.89 µM.

COc1ccc(OC)c(COc2cc(NC(=O)c3cc(C(F)(F)F)cc(C(F)(F)F)c3)ccc2NS(C)(=O)=O)c1 gave an IC50 (T98G [1]) of 1.04 µM and an IC50 (U-87 MG) of 2.65 µM.

COc1ccc(OC)c(COc2cc(NC(=O)c3ccc(C(F)(F)F)cc3C(F)(F)F)ccc2NS(C)(=O)=O)c1 showed an IC50 (T98G [1]) of 2.36 µM and an IC50 (U-87 MG) of 1.71 µM.

In the case of COc1cccc(C(=O)Nc2ccc(NS(C)(=O)=O)c(OCc3cc(OC)ccc3OC)c2)c1, the IC50 (T98G [1]) is reported as 0.22 µM and the IC50 (U-87 MG) is reported as 8.31 µM.

COc1ccc(OC)c(COc2cc(NC(=O)OCCOC(=O)Nc3ccc(NS(C)(=O)=O)c(OCc4cc(OC)ccc4OC)c3)ccc2NS(C)(=O)=O)c1 gave an IC50 (T98G [1]) of 2.28 µM and an IC50 (U-87 MG) of 5.23 µM.

COc1ccc(OC)c(COc2cc(NC(=O)c3ccc(C)c([N+](=O)[O-])c3)ccc2NS(C)(=O)=O)c1 gave an IC50 (T98G [1]) of 3.69 µM and an IC50 (U-87 MG) of 2.63 µM.

With COc1ccc(OC)c(COc2cc(NC(=O)c3ccc(C(F)(F)F)c(F)c3)ccc2NS(C)(=O)=O)c1 the IC50 (T98G [1]) was 4.77 µM and the IC50 (U-87 MG) was 1.5 µM.

For COc1ccc(OC)c(COc2cc(NC(=O)c3cccc(I)c3)ccc2NS(C)(=O)=O)c1, the IC50 (T98G [1]) was 0.13 µM and the IC50 (U-87 MG) was 0.21 µM.

COc1ccc(OC)c(COc2cc(NC(=O)c3ccc(C)cc3)ccc2NS(C)(=O)=O)c1 gave an IC50 (T98G [1]) of 0.213 µM and an IC50 (U-87 MG) of 0.091 µM.

For COc1ccc(OC)c(COc2cc(NC(=O)c3cccc(C(F)(F)F)c3)ccc2NS(C)(=O)=O)c1, the IC50 (T98G [1]) was 0.423 µM and the IC50 (U-87 MG) was 0.998 µM.

COc1ccc(OC)c(COc2cc(NC(=O)c3ccc(N)cc3)ccc2NS(C)(=O)=O)c1 gave an IC50 (T98G [1]) of 3.61 µM and an IC50 (U-87 MG) of 2.06 µM.

Work on COc1ccc(OC)c(COc2cc(NC(=O)c3cc(Cl)cc(Cl)c3)ccc2NS(C)(=O)=O)c1 yielded an IC50 (T98G [1]) of 0.097 µM and an IC50 (U-87 MG) of 0.15 µM.

COc1ccc(OC)c(COc2cc(NC(=O)c3cccc(Cl)c3)ccc2NS(C)(=O)=O)c1 gave an IC50 (T98G [1]) of 0.065 µM and an IC50 (U-87 MG) greater than 10 µM.

For COc1ccc(OC)c(COc2cc(NC(=O)c3cc(OC)c(OC)c(OC)c3)ccc2NS(C)(=O)=O)c1, the IC50 (T98G [1]) was 0.218 µM and the IC50 (U-87 MG) was 3.37 µM.

COc1ccc(OC)c(COc2cc(NC(=O)c3cccc([N+](=O)[O-])c3)ccc2NS(C)(=O)=O)c1 gave an IC50 (T98G [1]) of 5.07 µM and an IC50 (U-87 MG) of 2.04 µM.

Compound COc1ccc(OC)c(COc2cc(NC(=O)c3cccc(C)c3)ccc2NS(C)(=O)=O)c1 has an IC50 (T98G [1]) of 0.422 µM and an IC50 (U-87 MG) greater than 10 µM.

With COc1ccc(OC)c(COc2cc(NC(=O)CCCC(=O)Nc3ccc(NS(C)(=O)=O)c(OCc4cc(OC)ccc4OC)c3)ccc2NS(C)(=O)=O)c1 the IC50 (T98G [1]) was greater than 10 µM, the IC50 (U-87 MG) was greater than 10 µM and the Activity (T98G [2]) was “Active”.

In the case of COc1ccc(OC)c(COc2cc(NC(=O)c3ccc([N+](=O)[O-])cc3)ccc2NS(C)(=O)=O)c1, the IC50 (T98G [1]) is reported as 1.19 µM, the IC50 (U-87 MG) is reported as greater than 10 µM and the Activity (T98G [2]) is reported as “Active”.

With COc1ccc(OC)c(COc2cc(NC(=O)c3cccs3)ccc2NS(C)(=O)=O)c1 the IC50 (T98G [1]) was 3.43 µM, the IC50 (U-87 MG) was greater than 10 µM and the Activity (T98G [2]) was “Active”.

For COc1ccc(C(=O)Nc2ccc(NS(C)(=O)=O)c(OCc3cc(OC)ccc3OC)c2)cc1, the half-life [3] was 1.5 h.

In the case of COc1ccc(OC)c(COc2cc(NC(=O)COCC(=O)Nc3ccc(NS(C)(=O)=O)c(OCc4cc(OC)ccc4OC)c3)ccc2NS(C)(=O)=O)c1, the IC50 (T98G [1]) is reported as greater than 10 µM and the IC50 (U-87 MG) is reported as greater than 10 µM.

Compound COc1ccc(OC)c(COc2cc(NC(=O)c3ccc(C(F)(F)F)cc3)ccc2NS(C)(=O)=O)c1 has an IC50 (T98G [1]) greater than 10 µM and an IC50 (U-87 MG) of 2.08 µM.

Compound CCOc1cccc(C(=O)Nc2ccc(NS(C)(=O)=O)c(OCc3cc(OC)ccc3OC)c2)c1 has an IC50 (T98G [1]) of 0.0384 µM and an IC50 (U-87 MG) of 3.83 µM.

In the case of COc1ccc(OC)c(COc2cc(NC(=O)OCCOCCOCCOC(=O)Nc3ccc(NS(C)(=O)=O)c(OCc4cc(OC)ccc4OC)c3)ccc2NS(C)(=O)=O)c1, the IC50 (T98G [1]) is reported as 5.47 µM and the IC50 (U-87 MG) is reported as greater than 10 µM.
